How the values were obtained:
Experiment in all cases: Post-emergence test, weed control effect
Type in all cases: in vivo
[1] = tested on: Amaranthus retroflexus; conditions: after 3 weeks
Procedure, shortened: (§1)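 Activity is expressed as a level from 0 (no effect) to 10 (plant dead), each step matching a further 10% fresh-weight inhibition, assessed 3 weeks post-treatment. Treatment: spray at 2-3 leaf stage of pot-grown plants, compound in acetone, Tween-80 and water with 80% vegetable oil methyl ester synergist at 1500 g/ha.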

[2] = tested on: Chenopodiaceae; conditions: after 3 weeks; for inhibition at 300 g/ha / inhibition at 150 g/ha: 504 h, fresh weight inhibition, read-out: activity level of harmful plant destruction (growth inhibition rate), Chenopodiaceae
Procedure, shortened: as §1

[3] = tested on: Echinochloa crus-galli; conditions: 504 h, after 3 weeks, fresh weight inhibition, read-out: activity level of harmful plant destruction (growth inhibition rate), Echinochloa crus-galli
Procedure, shortened: as §1

[4] = tested on: Galium aparine; conditions: 504 h, after 3 weeks, fresh weight inhibition, read-out: activity level of harmful plant destruction (growth inhibition rate), Galium aparine
Procedure, shortened: as §1

[5] = tested on: Rorippa indica; conditions: after 3 weeks; for inhibition at 300 g/ha / inhibition at 150 g/ha: Rorippa indica, 504 h, fresh weight inhibition, read-out: activity level of harmful plant destruction (growth inhibition rate), Rorippa indica
Procedure, shortened: as §1

[6] = tested on: Setaria viridis; conditions: 504 h, after 3 weeks, fresh weight inhibition, read-out: activity level of harmful plant destruction (growth inhibition rate), Setaria viridis
Procedure, shortened: as §1

[7] = tested on: Veronica polita; conditions: after 3 weeks; for inhibition at 300 g/ha / inhibition at 150 g/ha: Veronica polita, 504 h, fresh weight inhibition, read-out: activity level of harmful plant destruction (growth inhibition rate), Veronica polita
Procedure, shortened: as §1

Oc1cc(C(F)(F)F)nnc1-c1ccc(F)c(Cl)c1 [Compound 740]
100%: inhibition at 300 g/ha [2] | inhibition at 300 g/ha [3] | inhibition at 300 g/ha [4] | inhibition at 300 g/ha [5] | inhibition at 300 g/ha [6] | inhibition at 300 g/ha [7]
10: weed control effect (activity level), Amaranthus retroflexus ([1]; Dose 3000 g/ha) | weed control effect (activity level), Chenopodiaceae ([2]; Dose 3000 g/ha) | weed control effect (activity level), Rorippa indica ([5]; Dose 3000 g/ha) | weed control effect (activity level), Veronica polita ([7]; Dose 3000 g/ha)

N#Cc1ccc(-c2nnc(C(F)(F)F)cc2OC(=O)c2ccc(Cl)cc2)cc1 [Compound 1-82]
10: weed control effect, Amaranthus retroflexus (activity level) ([1]; Dose 3000 g/ha) | weed control effect, Chenopodiaceae (activity level) ([2]; Dose 3000 g/ha) | weed control effect, Rorippa indica (activity level) ([5]; Dose 3000 g/ha) | weed control effect, Veronica polita (activity level) ([7]; Dose 3000 g/ha)
100%: inhibition at 150 g/ha [2] | inhibition at 150 g/ha [5] | inhibition at 150 g/ha [6]
80 to 90%: inhibition at 150 g/ha [7]
70 to 80%: inhibition at 150 g/ha [3] | inhibition at 150 g/ha [4]

Oc1cc(C(F)(F)F)nnc1-c1ccc(F)cc1 [Compound 32]
10: weed control effect (activity level), Amaranthus retroflexus ([1]; dose 1000 g/ha) | weed control effect (activity level), Chenopodiaceae ([2]; dose 1000 g/ha) | weed control effect (activity level), Rorippa indica ([5]; dose 1000 g/ha) | weed control effect (activity level), Veronica polita ([7]; dose 1000 g/ha)
100%: inhibition at 300 g/ha [2] | inhibition at 300 g/ha [3] | inhibition at 300 g/ha [4] | inhibition at 300 g/ha [5] | inhibition at 300 g/ha [6] | inhibition at 300 g/ha [7]

Cc1cc(-c2nnc(C(F)(F)F)cc2O)n(C)n1 [Compound 779]
100%: inhibition at 300 g/ha [2] | inhibition at 300 g/ha [3] | inhibition at 300 g/ha [4] | inhibition at 300 g/ha [5] | inhibition at 300 g/ha [6] | inhibition at 300 g/ha [7]
10: weed control effect (activity level), Amaranthus retroflexus ([1]; Dose 3000 g/ha) | weed control effect (activity level), Chenopodiaceae ([2]; Dose 3000 g/ha) | weed control effect (activity level), Rorippa indica ([5]; Dose 3000 g/ha) | weed control effect (activity level), Veronica polita ([7]; Dose 3000 g/ha)

Oc1cc(C(F)(F)F)nnc1-c1ccc(F)c(F)c1 [Compound 744]
100%: inhibition at 300 g/ha [2] | inhibition at 300 g/ha [3] | inhibition at 300 g/ha [4] | inhibition at 300 g/ha [5] | inhibition at 300 g/ha [6] | inhibition at 300 g/ha [7]
10: weed control effect (activity level), Amaranthus retroflexus ([1]; Dose 3000 g/ha) | weed control effect (activity level), Chenopodiaceae ([2]; Dose 3000 g/ha) | weed control effect (activity level), Rorippa indica ([5]; Dose 3000 g/ha) | weed control effect (activity level), Veronica polita ([7]; Dose 3000 g/ha)

CCCCCCCCSC(=O)Oc1cc(C(F)(F)F)nnc1-c1ccc(F)c(F)c1 [Compound 1-55]
10: weed control effect, Amaranthus retroflexus (activity level) ([1]; Dose 3000 g/ha) | weed control effect, Chenopodiaceae (activity level) ([2]; Dose 3000 g/ha) | weed control effect, Rorippa indica (activity level) ([5]; Dose 3000 g/ha) | weed control effect, Veronica polita (activity level) ([7]; Dose 3000 g/ha)
100%: inhibition at 150 g/ha [2] | inhibition at 150 g/ha [3] | inhibition at 150 g/ha [4] | inhibition at 150 g/ha [5] | inhibition at 150 g/ha [6] | inhibition at 150 g/ha [7]

Oc1cc(C(F)(F)F)nnc1-c1ccc(F)nc1F [Compound 220]
100%: inhibition at 300 g/ha [2] | inhibition at 300 g/ha [3] | inhibition at 300 g/ha [4] | inhibition at 300 g/ha [5] | inhibition at 300 g/ha [6] | inhibition at 300 g/ha [7]
10: weed control effect (activity level), Amaranthus retroflexus ([1]; dose 2000 g/ha) | weed control effect (activity level), Chenopodiaceae ([2]; dose 2000 g/ha) | weed control effect (activity level), Rorippa indica ([5]; dose 2000 g/ha) | weed control effect (activity level), Veronica polita ([7]; dose 2000 g/ha)

Oc1cc(C(F)(F)F)nnc1-c1ccc(F)nc1 [Compound 207]
10: weed control effect (activity level), Amaranthus retroflexus ([1]; dose 2000 g/ha) | weed control effect (activity level), Chenopodiaceae ([2]; dose 2000 g/ha) | weed control effect (activity level), Rorippa indica ([5]; dose 2000 g/ha) | weed control effect (activity level), Veronica polita ([7]; dose 2000 g/ha)
100%: inhibition at 300 g/ha [2] | inhibition at 300 g/ha [3] | inhibition at 300 g/ha [4] | inhibition at 300 g/ha [5] | inhibition at 300 g/ha [6] | inhibition at 300 g/ha [7]

Oc1cc(C(F)(F)F)nnc1-c1ccc(C(F)(F)F)cc1F [Compound 51]
10: weed control effect (activity level), Amaranthus retroflexus ([1]; dose 1000 g/ha) | weed control effect (activity level), Chenopodiaceae ([2]; dose 1000 g/ha) | weed control effect (activity level), Rorippa indica ([5]; dose 1000 g/ha) | weed control effect (activity level), Veronica polita ([7]; dose 1000 g/ha)
100%: inhibition at 300 g/ha [2] | inhibition at 300 g/ha [5]
90 to 100%: inhibition at 300 g/ha [6] | inhibition at 300 g/ha [7]
80 to 90%: inhibition at 300 g/ha [4]
60 to 70%: inhibition at 300 g/ha [3]

Oc1cc(C(F)(F)F)nnc1-c1cc(F)cc(F)c1 [Compound 35]
10: weed control effect (activity level), Amaranthus retroflexus ([1]; dose 1000 g/ha) | weed control effect (activity level), Chenopodiaceae ([2]; dose 1000 g/ha) | weed control effect (activity level), Rorippa indica ([5]; dose 1000 g/ha) | weed control effect (activity level), Veronica polita ([7]; dose 1000 g/ha)
90 to 100%: inhibition at 300 g/ha [4]
100%: inhibition at 300 g/ha [2] | inhibition at 300 g/ha [3] | inhibition at 300 g/ha [5] | inhibition at 300 g/ha [6] | inhibition at 300 g/ha [7]

N#Cc1ccccc1C(=O)Oc1cc(C(F)(F)F)nnc1-c1ccc(F)c(F)c1 [Compound 1-86]
10: weed control effect, Amaranthus retroflexus (activity level) ([1]; Dose 3000 g/ha) | weed control effect, Chenopodiaceae (activity level) ([2]; Dose 3000 g/ha) | weed control effect, Rorippa indica (activity level) ([5]; Dose 3000 g/ha) | weed control effect, Veronica polita (activity level) ([7]; Dose 3000 g/ha)
100%: inhibition at 150 g/ha [2] | inhibition at 150 g/ha [3] | inhibition at 150 g/ha [4] | inhibition at 150 g/ha [5] | inhibition at 150 g/ha [6] | inhibition at 150 g/ha [7]

Oc1cc(C(F)(F)F)nnc1-c1cccnc1 [Compound 202]
70 to 80%: inhibition at 300 g/ha [3]
10: weed control effect (activity level), Amaranthus retroflexus ([1]; dose 2000 g/ha) | weed control effect (activity level), Chenopodiaceae ([2]; dose 2000 g/ha) | weed control effect (activity level), Rorippa indica ([5]; dose 2000 g/ha) | weed control effect (activity level), Veronica polita ([7]; dose 2000 g/ha)
100%: inhibition at 300 g/ha [2] | inhibition at 300 g/ha [4] | inhibition at 300 g/ha [5] | inhibition at 300 g/ha [6]
80 to 90%: inhibition at 300 g/ha [7]

COc1cc(C(F)(F)F)nnc1-c1ccccc1 [D, reference compound]
0%: inhibition at 300 g/ha [3] | inhibition at 300 g/ha [4] | inhibition at 300 g/ha [6] | inhibition at 300 g/ha [7]
0 to 20%: inhibition at 300 g/ha [2] | inhibition at 300 g/ha [5]

Oc1cc(C(F)(F)F)nnc1-c1cnc(F)c(Cl)c1 [Compound 1000]
10: weed control effect (activity level), Amaranthus retroflexus ([1]; Dose 3000 g/ha) | weed control effect (activity level), Chenopodiaceae ([2]; Dose 3000 g/ha) | weed control effect (activity level), Rorippa indica ([5]; Dose 3000 g/ha) | weed control effect (activity level), Veronica polita ([7]; Dose 3000 g/ha)
100%: inhibition at 300 g/ha [2] | inhibition at 300 g/ha [3] | inhibition at 300 g/ha [4] | inhibition at 300 g/ha [5] | inhibition at 300 g/ha [6] | inhibition at 300 g/ha [7]

CCCCCCCCOC(=O)Oc1cc(C(F)(F)F)nnc1-c1ccc(F)cc1 [Compound 1-39]
10: weed control effect, Amaranthus retroflexus (activity level) ([1]; Dose 3000 g/ha) | weed control effect, Chenopodiaceae (activity level) ([2]; Dose 3000 g/ha) | weed control effect, Rorippa indica (activity level) ([5]; Dose 3000 g/ha) | weed control effect, Veronica polita (activity level) ([7]; Dose 3000 g/ha)
100%: inhibition at 150 g/ha [2] | inhibition at 150 g/ha [3] | inhibition at 150 g/ha [4] | inhibition at 150 g/ha [5] | inhibition at 150 g/ha [6] | inhibition at 150 g/ha [7]

Oc1cc(C(F)(F)F)nnc1-c1cnn(C(F)F)c1 [Compound 844]
100%: inhibition at 150 g/ha [2] | inhibition at 150 g/ha [3] | inhibition at 150 g/ha [4] | inhibition at 150 g/ha [5] | inhibition at 150 g/ha [6] | inhibition at 150 g/ha [7]
10: weed control effect (activity level), Amaranthus retroflexus ([1]; dose 2000 g/ha) | weed control effect (activity level), Chenopodiaceae ([2]; dose 2000 g/ha) | weed control effect (activity level), Rorippa indica ([5]; dose 2000 g/ha) | weed control effect (activity level), Veronica polita ([7]; dose 2000 g/ha)

Oc1cc(C(F)(F)F)nnc1-c1ccnc(F)c1 [Compound 206]
100%: inhibition at 300 g/ha [2] | inhibition at 300 g/ha [3] | inhibition at 300 g/ha [4] | inhibition at 300 g/ha [5] | inhibition at 300 g/ha [6] | inhibition at 300 g/ha [7]
10: weed control effect (activity level), Amaranthus retroflexus ([1]; dose 2000 g/ha) | weed control effect (activity level), Chenopodiaceae ([2]; dose 2000 g/ha) | weed control effect (activity level), Rorippa indica ([5]; dose 2000 g/ha) | weed control effect (activity level), Veronica polita ([7]; dose 2000 g/ha)

C=CCOc1cc(C(F)(F)F)nnc1-c1ccccc1 [E, reference compound]
0 to 20%: inhibition at 300 g/ha [2] | inhibition at 300 g/ha [5]
0%: inhibition at 300 g/ha [3] | inhibition at 300 g/ha [4] | inhibition at 300 g/ha [6] | inhibition at 300 g/ha [7]

Cn1nc(-c2cc(O)c(Cl)cc2Cl)c(=O)cc1C(F)(F)F [C, reference compound]
30 to 40%: inhibition at 300 g/ha [2] | inhibition at 300 g/ha [5]
0%: inhibition at 300 g/ha [3] | inhibition at 300 g/ha [6]
20 to 30%: inhibition at 300 g/ha [4] | inhibition at 300 g/ha [7]
